# In ChEMBL document CHEMBL5380820, “Design and Discovery of Novel Cyclic Peptides as EDPs-EBP Interaction Inhibitors for the Treatment of Liver Fibrosis” (J Med Chem, 2023):
# Active and inactive are the calls of the source. The calls are words filed in the database; no cut-off is given here. Where a SMILES comes first, the peptide text is derived from it. Bridges are numbered along the chain shown (N, C = ends).
# Tests used:
# LX2 [1] = experiment: Inhibition of elastin receptor complex elastin binding protein subunit in human LX2 cells assessed as inhibition of EDP induced ERK phosphorylation treated at 10 uM for 24 hrs by Western blot analysis; assay type: cell-based
# LX-2 [2] = experiment: Antiproliferative activity against TGF-beta induced human LX2 cells assessed as decrease in cell proliferation at 10 uM for 24 hrs by BeyoClick EdU cells proliferation kit with Alex Fluor 488 and DAPI staining analysis; assay type: functional, cell-based
# LX-2 [3] = experiment: Antifibrotic activity against TGF-beta induced human LX2 cells assessed as inhibition of collagen I expression by measuring fluorescence intensity relative to control; assay type: functional
# LX2 [4] = experiment: Inhibition of elastin receptor complex elastin binding protein subunit in human LX2 cells assessed as inhibition of EDP induced PI3K phosphorylation treated at 10 uM for 24 hrs by Western blot analysis; assay type: cell-based
# LX-2 [5] = experiment: Antifibrotic activity against TGF-beta induced human LX2 cells assessed as inhibition of neuraminidase activity using NA fluorogenic substrate by measuring fluorescence intensity relative to control; assay type: functional
# LX2 [6] = experiment: Inhibition of elastin receptor complex elastin binding protein subunit in human LX2 cells assessed as inhibition of EDP induced AMPK phosphorylation treated at 10 uM for 24 hrs by Western blot analysis; assay type: cell-based
# LX-2 [7] = experiment: Antifibrotic activity against TGF-beta induced human LX2 cells assessed as reduction of alpha-SMA expression measured at 10 uM for 24 hrs by measuring fluorescence intensity relative to control; assay type: functional; parameters: scale not given: the % may be the effect or the level left
# LX-2 [8] = experiment: Antifibrotic activity against TGF-beta induced human LX2 cells assessed as inhibition of alpha-SMA expression by measuring fluorescence intensity relative to control; assay type: functional
# LX-2 [9] = experiment: Antifibrotic activity against TGF-beta induced human LX2 cells assessed as reduction of collagen I expression measured at 10 uM for 24 hrs by measuring fluorescence intensity relative to control; assay type: functional; parameters: scale not given: the % may be the effect or the level left
# Mus musculus [10] = experiment: Antifibrotic activity in CCl4-induced C57BL/6 mouse model of liver fibrosis assessed as reduction in serum AST level treated at 150 ug/kg, ip daily for 3 weeks; assay type: functional, organism-based; conditions: dose 150.0 µg/kg
# Mus musculus [11] = experiment: Antifibrotic activity in CCl4-induced C57BL/6 mouse model of liver fibrosis assessed as reduction in serum ALT level treated at 150 ug/kg, ip daily for 3 weeks; assay type: functional, organism-based; conditions: dose 150.0 µg/kg
# LX-2 [12] = experiment: Antifibrotic activity against TGF-beta induced human LX2 cells assessed as reduction of alpha-SMA expression derived peptide measured by Western blotting analysis; assay type: functional, cell-based; conditions: dose 0.01-100 µmol/L
# LX-2 [13] = experiment: Inhibition of cell migration in human LX2 cells assessed as decreased cell number in wound area measured at 0 to 24 hrs by wound healing assay; assay type: functional, cell-based; conditions: time 0-24 hrs
# [14] = Tmax in Sprague-Dawley rat plasma at 0.1 mg/kg, sc by HPLC-MS/MS analysis; assay type: ADME, organism-based
# Mus musculus [15] = experiment: Antifibrotic activity in CCl4-induced C57BL/6 mouse model of liver fibrosis assessed as reduction in alpha-SMA level treated at 150 ug/kg, ip daily for 3 weeks by Western blo analysis; assay type: functional, organism-based; conditions: dose 150.0 µg/kg
# [16] = Stability in mouse serum assessed as half life measured by RP-HPLC-MS analysis; assay type: ADME, cell-free
# [17] = Half life in Sprague-Dawley rat plasma at 0.1 mg/kg, sc by HPLC-MS/MS analysis; assay type: ADME, organism-based
# Mus musculus [18] = experiment: Antifibrotic activity in CCl4-induced C57BL/6 mouse model of liver fibrosis assessed as decrease of hydroxyproline content in liver treated at 150 ug/kg ip daily for 3 weeks fasted for 9 hrs after last dose and sacrificed after 8 hrs of fasting by […] analysis; assay type: functional, organism-based; conditions: dose 150.0 µg/kg, time 3.033 weeks
# Mus musculus [19] = experiment: Antifibrotic activity in CCl4-induced C57BL/6 mouse model of liver fibrosis assessed as reduction of collagen deposition in liver treated at 150 ug/kg, ip daily for 3 weeks fasted for 9 hrs after last dose and sacrificed after 8 hrs of fasting by hematoxylin and eosin staining analysis; assay type: functional, organism-based; conditions: dose 150.0 µg/kg, time 3.033 weeks
# LX-2 [20] = experiment: Antifibrotic activity against TGF-beta induced human LX2 cells assessed as reduction of collagen I expression measured at 10 uM for 24 hrs by measuring fluorescence intensity; assay type: functional, cell-based
# [21] = Stability in mouse serum measured at 0 to 48 hrs by RP-HPLC-MS analysis; assay type: ADME, cell-free; conditions: time 0-48 hrs
# [22] = Half life in Sprague-Dawley rat plasma at 0.6 mg/kg, sc by HPLC-MS/MS analysis; assay type: ADME, organism-based
# [23] = Tmax in Sprague-Dawley rat plasma at 0.6 mg/kg, sc by HPLC-MS/MS analysis; assay type: ADME, organism-based
# LX-2 [24] = experiment: Antifibrotic activity against TGF-beta induced human LX2 cells assessed as reduction of alpha-SMA expression measured at 10 uM for 24 hrs by measuring fluorescence intensity; assay type: functional, cell-based
Molecule,inhibition (LX2 [1]),Activity (LX-2 [2]),inhibition (INH) (LX-2 [3]) [%],inhibition (LX2 [4]),inhibition (INH) (LX-2 [5]) [%],inhibition (LX2 [6]),Activity (LX-2 [7]) [%],inhibition (INH) (LX-2 [8]) [%],Activity (LX-2 [9]) [%],Activity (Mus musculus [10]),Activity (Mus musculus [11]),Activity (LX-2 [12]),Activity (Mus musculus [15]),Activity (Mus musculus [19]),also measured
CC(C)C[C@H](NC(=O)[C@@H]1CCCN1C(=O)[C@H](CO)NC(=O)[C@H](C)NC(=O)[C@@H]1CCC(=O)N[C@@H](C(C)C)C(=O)N[C@@H](C(C)C)C(=O)NCC(=O)N[C@@H](CO)C(=O)N2CCC[C@H]2C(=O)N[C@@H](CO)C(=O)N[C@@H](C)C(=O)N[C@@H](CCC(N)=O)C(=O)N[C@@H](CC(=O)O)C(=O)N1)C(=O)O (VVGSPSAQDEASPL-OH; lactam N-10),Active,Active,33.5,Active,68,Active,~50,34.8,~50,,,,,,
CC(C)[C@@H]1NC(=O)CNC(=O)[C@@H]2CCCN2C(=O)[C@H](CO)NC(=O)[C@H](C)NC(=O)[C@H](CCC(=O)O)NC(=O)[C@H](CC(=O)O)NC(=O)[C@H](CCC(N)=O)NC(=O)[C@H](C)NC(=O)[C@H](Cc2ccccc2)NC(=O)[C@@H]2CCCN2C(=O)[C@H](CO)NC(=O)CNC(=O)[C@H](C(C)C)NC1=O (cyclo(AQDEASPGVVGSPF)),,,,,40.9,,,0.1,,Active,Active,inactive,,,inhibition (LX-2 [3]): inactive
CC(C)C[C@@H]1NC(=O)[C@@H]2CCCN2C(=O)[C@H](CO)NC(=O)[C@H](C)NC(=O)[C@H](CCC(=O)O)NC(=O)[C@H](CC(=O)O)NC(=O)[C@H](CCC(N)=O)NC(=O)[C@H](C)NC(=O)[C@H](CO)NC(=O)[C@@H]2CCCN2C(=O)[C@H](CO)NC(=O)CNC(=O)[C@H](C(C)C)NC(=O)[C@H](C(C)C)NC1=O (cyclo(AQDEASPLVVGSPS)),Active,Active,39.7,Active,79.8,Active,~50,45.3,~50,,,,Active,Active,inhibition (LX-2 [13]): Active; Tmax [14]: 10.2 min; half-life [16]: > 36 h; half-life [17]: 19.8 min; Activity (Mus musculus [18]): Active
H-VVGSPSAQDEASPL-NH2,Active,Active,22.5,Active,37,Active,~50,27.5,~50,Active,Active,Dose-Dependent Effect,Active,Active,Activity (LX-2 [20]): Active; Stability [21]: 40%; half-life [22]: 4.8 min; Tmax [23]: 4.8 min; Activity (LX-2 [24]): Active
